Experimental data from patent US10894054B2, “FXR agonist compositions for combination therapy” (Intercept Pharmaceuticals, Inc., priority 2015, dated 2021).

Columns and labels:
DIO-NASH mice = assay: Oral glucose tolerance test (OGTT); type: in vivo, male C57BL/6 mice; details: alone or combined, PO QD, DIO-NASH vehicle 1762 ± 45
Method: Blood samples were collected into 10 μL heparinized glass capillary tubes. The sample was immediately suspended in buffer (0.5 ml of glucose/lactate system solution (EKF-diagnostics, Germany) and analyzed for glucose on the test day using a BIOSEN c-Line glucose meter (EKF-diagnostics, Germany). For triglyceride and cholesterol content, 100 μl blood was collected into Lithium-Heparin tubes. Plasma was separated and samples were stored at 4° C. for one day prior to analysis.
In week 4 (LIRA and MET combinations) or week 6 (SIT combination) of treatment, an OGTT was performed in conscious free-moving animals. […] Animals were fasted for 4 h prior to test start (food removal from 6 AM to 10 AM). At t=0, mice received an oral bolus of glucose (2 g/kg) (200 mg/ml; Fresenius Kabi, Sweden) by oral gavage (10 ml/kg). Blood samples were collected from the tail vein (by snipping) and blood glucose was measured at time point 0, 15, 30, 60 and 120 minutes after the oral glucose administration. Mice were re-fed after the blood sampling and drug dosed as per usual.

[1] = test system: HFD-induced rabbit model of MetS; details: cited from earlier work
[2] = high dose: OCA 30 mg/kg, MET 150 mg/kg
[3] = low dose: OCA 10 mg/kg, MET 50 mg/kg
[4] = HFD rabbits, in vivo OCA dosing

Compound | OGTT Blood Glucose AUC, Week 4 (DIO-NASH mice; [2]) [mmol·min/L] | OGTT Blood Glucose AUC, Week 4 (DIO-NASH mice; [3]) [mmol·min/L] | adipocyte size, hypoxia, and expression of perilipin and GLUT4 (SLC2A4) in VAT ([1]; HFD rabbits vs rabbits on a control diet, immunohistochemistry, Western blot, RT-PCR) | amount of visceral AT (VAT) [1, 4] | expression of steatosis and inflammation markers [1, 4] | insulin resistance and metabolic profile [1, 4]
CN(C)C(=N)N=C(N)N [MET, metformin, reference compound] | 1480 ± 53 | 1698 ± 31 | – | – | – | –
CC[C@H]1[C@@H](O)[C@@H]2[C@H](CC[C@]3(C)[C@@H]([C@H](C)CCC(=O)O)CC[C@@H]23)[C@@]2(C)CC[C@@H](O)C[C@@H]12 [OCA, 3α,7α-dihydroxy-6α-ethyl-5β-cholan-24-oic acid] | 1778 ± 88 | 1680 ± 71 | normalizes | marked reduction | normalizes | ameliorates insulin resistance and the metabolic profile
